Results: patent US6858607B1, “7,8-fused 4H-chromene and analogs as activators of caspases and inducers of apoptosis and the use thereof” (Cytovia, Inc., priority 2001, dated 2005)

Columns and labels:
[1] = system: T-47D; test: Caspase cascade activation in T-47D cells (N-(Ac-DEVD)-N'-ethoxycarbonyl-R110 fluorogenic substrate); assay type: cell-based; conditions: T-47D human breast cancer cells, 24 h incubation; for T-47D Ratio (caspase activity): ratio of net RFU of test compound to control
Description: (§1) Human breast cancer cell lines T47D and ZR-75-1 were grown according to media component mixtures designated by American Type Culture Collection+10% FCS (Invitrogen Corporation), in approximately 5% CO2-95% humidity incubator at approximately 37° C. T-47D and ZR-75-1 cells were maintained at a cell density between 30 and 80% confluency at a cell density of 0.1 to 0.6×10^6 cells/mL. Cells were harvested at approximately 600×g and resuspended at approximately 0.65×10^6 cells/mL into appropriate media plus approximately 10% FCS. An aliquot of approximately 45 μl of cells was added to a well of a 96-well microtiter plate containing approximately 5 μl of a solution of approximately 10% DMSO in RPMI-1640 media solution containing approximately 0.16 to 10 μM of the test compounds (0.016 to 1 μM final). An aliquot of approximately 45 μl of cells was added to a well of a 96-well microtiter plate containing approximately 5 μl of a solution of approximately 10% DMSO in RPMI-1640 media solution without test compound as the control sample. The samples were mixed by agitation and then incubated at approximately 37° C. for approximately 24 h in approximately 5% CO2-95% humidity incubator. After incubation, the samples were removed from the incubator and approximately 50 μl of a solution containing approximately 20 μM of N-(Ac-DEVD)-N′-ethoxycarbonyl-R110 fluorogenic substrate, SEQ ID NO:1 (Cytovia, Inc.; U.S. Pat. No. 6,335,429), comprising approximately 20% sucrose (Sigma), 20 mM DTT (Sigma), 200 mM NaCl (Sigma), 40 mM Na PIPES buffer at approximate pH 7.2 (Sigma), and approximately 500 μg/ml lysolecithin (Calbiochem) was added. The samples were mixed by agitation and incubated at room temperature. Using a fluorescent plate reader (Model 1420 Wallac Instruments), an initial reading (T=0) was made approximately 1-2 min after addition of the substrate solution, employing excitation at 485 nm and emission at […], to determine the background fluorescence of the control sample. After the 3 h incubation, the samples were read for fluorescence as above (T=3 h).
(§2) The Relative Fluorescence Unit values (RFU) were used to calculate the sample readings as follows: RFU(T=3h)−Control RFU(T=0)=Net RFU(T=3h)
(§3) The activity of caspase cascade activation was determined by the ratio of the net RFU value for the test compounds to that of control samples. The EC50 (nM) was determined by a sigmoidal dose-response calculation (Prism 2.0, GraphPad Software Inc.).

[2] = system: ZR-75-1; test: Caspase cascade activation in ZR-75-1 cells (N-(Ac-DEVD)-N'-ethoxycarbonyl-R110 fluorogenic substrate); assay type: cell-based; conditions: ZR-75-1 human breast cancer cells, 24 h incubation; for ZR-75-1 Ratio (caspase activity): ratio of net RFU of test compound to control; for EC50: sigmoidal dose-response
Description: as §1, §2, §3

EC50 ([1]; sigmoidal dose-response) [µM]	EC50 [2] [µM]	T-47D EC50 (nM) ([1]; sigmoidal dose-response)	Molecule	T-47D Ratio (caspase activity) [1]	ZR-75-1 Ratio (caspase activity) [2]
> 1	0.56		2-Amino-3-cyano-4-(3-bromo-4,5-dimethoxyphenyl)-4H-triazo[4,5-h]chromene [Example 1]	1.8	5.3
0.567	0.366		COc1cc(C2C(C#N)=C(N)Oc3c2ccc2oc(=O)[nH]c32)cc(Br)c1OC (centres unmarked) [Example 2, 2-Amino-3-cyano-4-(3-bromo-4,5-dimethoxyphenyl)-8-oxo-4,8,9-trihydro-oxazo[5,4-h]chromene]	6.4	8.5
		Inactive	COc1cc(C2C(C#N)=C(N)Oc3c2ccc2oc(=O)n(C)c32)cc(Br)c1OC (centres unmarked) [Example 3, 2-Amino-3-cyano-4-(3-bromo-4,5-dimethoxyphenyl)-8-oxo-4,8-dihydro-9-methyl-oxazo[5,4-h]chromene]	1.5	2.7
0.0472	0.023		COC=NC1=C(C#N)C(c2cc(Br)c(OC)c(OC)c2)c2ccc3ocnc3c2O1 (centres unmarked) [Example 4, 2-Methoxymethylimine-3-cyano-4-(3-bromo-4,5-dimethoxyphenyl)-4H-oxazo[5,4-h]chromene]	8.1	7.9
0.285	0.156		COc1cc(C2C(C#N)=C(N)Oc3c2ccc2[nH]c(=O)oc32)cc(Br)c1OC (centres unmarked) [Example 5, 2-Amino-3-cyano-4-(3-bromo-4,5-dimethoxyphenyl)-8-oxo-4,7,8-trihydro-oxazo[4,5-h]chromene]	8.6	4.5
0.0118			COc1cc(C2C(C#N)=C(N)Oc3c2ccc2c3oc(=O)n2C)cc(Br)c1OC (centres unmarked) [Example 6, 2-Amino-3-cyano-4-(3-bromo-4,5-dimethoxyphenyl)-8-oxo-4,8-dihydro-7-methyl-oxazo[4,5-h]chromene]	6.5	
0.0687	0.043		COc1cc(C2C(C#N)=C(N)Oc3c2ccc2ncoc32)cc(Br)c1OC (centres unmarked) [Example 7, 2-Amino-3-cyano-4-(3-bromo-4,5-dimethoxyphenyl)-4H-oxazo[4,5-h]chromene]	7.8	9.8
0.0351	0.0129		COc1cc(C2C(C#N)=C(N)Oc3c2ccc2ocnc32)cc(Br)c1OC (centres unmarked) [Example 8, 2-Amino-3-cyano-4-(3-bromo-4,5-dimethoxyphenyl)-4H-oxazo[5,4-h]chromene]	7.9	7.2
